Patent publication US20100267637A1, “TREATMENT OF MELANOMA WITH ALPHA THYMOSIN PEPTIDES IN COMBINATION WITH A KINASE INHIBITOR” (SciClone Pharmaceuticals, Inc., priority 2007, published 2010)

Test: Treatment toxicity: body weight and drug-induced animal deaths in B16 melanoma-bearing mice
Assay type: in vivo, C57BL/6 mice
Protocol: The toxic effects of the dosing regimens were also monitored. […] Meanwhile 9H10 was given in two groups via i.p. on Day 3, 6 and 9. […] Tumor volume and body weight were measured every three days, and tumor weights were measured on Day 16 at the end of the study.
On Day 3, the animals were randomly assigned into nine different weight-matched and tumor-size-matched groups. Dosing was started on Day 3 using the regimen according to Table 2.
From Day 1 to Day 15, mortality and moribundity were checked twice daily, the body weights were recorded once every 3 days, and tumors were measured using a caliper once every 3 days. At the end of the study (Day 16), the animals were euthanized by CO2 asphyxiation, and the tumors were excised and weighed.
Toxicity of all treatment regimens was evaluated with the body weights of the study animals along with the drug-induced animal deaths. The inhibition of body weight was calculated using Excel according to the equation below:
PIBW(%)=100×(BW vehicle−BW drug treated)/BW vehicle
Inter-group comparison was performed in terms of tumor volume, tumor weight and body weight, using a student's t test. P values of less than 0.05 were considered to be statistically significant.

Structure (SMILES): CNC(=O)c1cc(Oc2ccc(NC(=O)Nc3ccc(Cl)c(C(F)(F)F)c3)cc2)ccn1 [Sorafenib]
- Body Weight (g) (Mean ± SD) (Day 0 (tumor implantation, before dosing)): 21.02 ± 0.834 g
- Percent inhibition of body weight vs vehicle (PIBW) (Day 0): −0.9121%
- Percent inhibition of body weight vs vehicle (PIBW) (Day 3): 0.0000%
- Body Weight (g) (Mean ± SD) (Day 6): 20.74 ± 1.023 g
- Percent inhibition of body weight vs vehicle (PIBW) (Day 6): −1.6667%
- Body Weight (g) (Mean ± SD) (Day 9): 19.75 ± 1.307 g
- Body weights on Day 9 (Day 9, animal F1): 18.60 g
- Body weights on Day 9 (Day 9, animal F2): 18.40 g
- Body weights on Day 9 (Day 9, animal F3): 18.40 g
- Body weights on Day 9 (Day 9, animal F4): 18.60 g
- Body weights on Day 9 (Day 9, animal F5): 19.80 g
- Body weights on Day 9 (Day 9, animal M1): 20.80 g
- Body weights on Day 9 (Day 9, animal M2): 22.10 g
- Body weights on Day 9 (Day 9, animal M3): 20.40 g
- Body weights on Day 9 (Day 9, animal M4): 21.10 g
- Body weights on Day 9 (Day 9, animal M5): 19.30 g
- Percent inhibition of body weight vs vehicle (PIBW) (Day 9): 3.2337%
- Body Weight (g) (Mean ± SD) (Day 12): 20.09 ± 1.534 g
- Body weights on Day 12 (Day 12, animal F1): 19.00 g
- Body weights on Day 12 (Day 12, animal F2): 17.20 g
- Body weights on Day 12 (Day 12, animal F3): 20.80 g
- Body weights on Day 12 (Day 12, animal F4): 18.30 g
- Body weights on Day 12 (Day 12, animal F5): 20.30 g
- Body weights on Day 12 (Day 12, animal M1): 22.10 g
- Body weights on Day 12 (Day 12, animal M2): 21.40 g
- Body weights on Day 12 (Day 12, animal M3): 20.40 g
- Body weights on Day 12 (Day 12, animal M4): 21.50 g
- Body weights on Day 12 (Day 12, animal M5): 19.90 g
- Percent inhibition of body weight vs vehicle (PIBW) (Day 12): 8.2229%
- Percent inhibition of body weight vs vehicle (PIBW) (Day 12, listed as Sorafenib alone): 8.22%
- Body Weight (g) (Mean ± SD) (Day 15): 21.41 ± 1.919 g
- Body weights on Day 15 (Day 15, animal F1): 20.70 g
- Body weights on Day 15 (Day 15, animal F2): 17.50 g
- Body weights on Day 15 (Day 15, animal F3): 21.10 g
- Body weights on Day 15 (Day 15, animal F4): 19.90 g
- Body weights on Day 15 (Day 15, animal F5): 21.50 g
- Body weights on Day 15 (Day 15, animal M1): 23.90 g
- Body weights on Day 15 (Day 15, animal M2): 23.80 g
- Body weights on Day 15 (Day 15, animal M3): 22.20 g
- Body weights on Day 15 (Day 15, animal M4): 22.80 g
- Body weights on Day 15 (Day 15, animal M5): 20.70 g
- Percent inhibition of body weight vs vehicle (PIBW) (Day 15): 3.2972%
